This note sets out measurements from ChEMBL document CHEMBL1201862, “PubChem BioAssay data set” (2004).

Each structure is given as a SMILES string.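 48-hour exposure; five concentrations; linearly interpolated endpoints. GI50 = concentration required for 50% inhibition of growth.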 The source made the active and inactive calls. Cut-off read from the data, not from the text of the source: active = GI50 up to about 1.1 µM and inactive = higher.

Among the test systems are HOP-62; K562; A498; M14; SF-539; Hs-578T; DU-145; HCT-15; OVCAR-3; SK-MEL-5; NCI-H460; CCRF-CEM; CAKI-1; TK-10; KM12; HT-29; 786-0; HOP-92; NCI-H23; HCC 2998.
Assay in all cases: inhibition of tumour cell growth, NCI panel, 48 h

Regarding `CCCCCCCCCC(=O)N[C@@H](c1ccco1)[C@@H](O)C(=O)O[C@H]1C[C@@]2(O)[C@@H](OC(=O)c3ccccc3)[C@@H]3[C@]4(OC(C)=O)CO[C@@H]4C[C@H](O)[C@@]3(C)C(=O)[C@H](OC(C)=O)C(=C1C)C2(C)C`, the GI50 was 0.0593 µM (active) in the assay with HOP-62; 0.0187 µM (active) in the assay with K562; 0.082 µM (active) in the assay on A498; 0.0308 µM (active) in the assay with M14; 0.0228 µM (active) in the assay with SF-539; 0.00865 µM (active) in the assay with Hs-578T. The GI50 in the assay with DU-145 was 0.106 µM (active); in the assay on HCT-15 it was 0.752 µM; in the assay with OVCAR-3, 0.00914 µM (active); in the assay on SK-MEL-5 it was 0.0154 µM (active); with NCI-H460, 0.0118 µM (active); with CCRF-CEM, 0.0178 µM (active). For the same molecule, the GI50 in the assay with CAKI-1 was 2.85 µM (inactive); with TK-10 it was 0.468 µM (active); in the assay on KM12, 0.00879 µM (active); in the assay with HT-29, 0.00598 µM (active); with 786-0, 0.0282 µM (active); in the assay with HOP-92, 0.0296 µM (active). Moreover, the figures for the GI50 with NCI-H23 and in the assay on HCC 2998 were 0.0385 µM (active) and 0.0703 µM (active), respectively.

Consider `CNC(=O)N(CCC#N)CCCN(C(=O)N(C)C)c1ccccc1`, for which the GI50 in the assay with HOP-62, with K562, in the assay with A498, in the assay with M14, in the assay with SF-539 and in the assay on Hs-578T was > 100 µM (inactive) throughout. Further, the GI50 in the assay on DU-145 is > 100 µM (inactive); in the assay with HCT-15, more than 100 µM; in the assay on OVCAR-3, > 100 µM (inactive); with SK-MEL-5 it was > 100 µM (inactive); with NCI-H460, > 100 µM (inactive); in the assay on CCRF-CEM, > 100 µM (inactive). The GI50 in the assay with CAKI-1, in the assay on TK-10, in the assay with KM12, in the assay on HT-29, in the assay with 786-0 and with HOP-92 was > 100 µM (inactive) throughout. In addition, the GI50 in the assay with NCI-H23 and in the assay on HCC 2998 was > 100 µM (inactive) throughout.

Consider `O=C(/C=C\c1ccc(-c2ccccc2)cc1)c1cccs1`, for which the GI50 with HOP-62 is 25.3 µM (inactive); in the assay on K562, 3.7 µM (inactive); with A498 it was 8.67 µM (inactive); with M14, > 100 µM (inactive); in the assay on SF-539 it was 7.18 µM (inactive); in the assay with Hs-578T, 9.59 µM (inactive). Also, the GI50 in the assay with DU-145 is 5.56 µM (inactive); with HCT-15, 7.74 µM; in the assay with OVCAR-3, 9.29 µM (inactive); with SK-MEL-5 it was > 70 µM (inactive); with NCI-H460, 56.4 µM (inactive); in the assay with CCRF-CEM it was 2.42 µM (inactive). Moreover, the GI50 was 35.7 µM (inactive) in the assay on CAKI-1; 46.2 µM (inactive) in the assay on TK-10; 4.42 µM (inactive) in the assay on KM12; 3.38 µM (inactive) in the assay with HT-29; 11.6 µM (inactive) with 786-0; > 69.2 µM (inactive) with HOP-92. In addition, the GI50 is 22 µM (inactive) in the assay with NCI-H23 and > 28.4 µM (inactive) in the assay with HCC 2998.

For `COc1ccc(/C=C/c2cc(=O)cc(/C=C/c3ccc(OC)c(O)c3)o2)cc1O`, the GI50 is 3.41 µM (inactive) in the assay on HOP-62; 2.42 µM (inactive) in the assay with K562; 3.53 µM (inactive) with A498; 2.31 µM (inactive) with M14; 1.98 µM (inactive) with SF-539; 3.5 µM (inactive) in the assay on Hs-578T. Also, the GI50 is 2.92 µM (inactive) in the assay with DU-145; 2.29 µM in the assay on HCT-15; 2.52 µM (inactive) in the assay on OVCAR-3; 1.88 µM (inactive) in the assay with SK-MEL-5; 2.21 µM (inactive) in the assay with NCI-H460; 2.82 µM (inactive) in the assay on CCRF-CEM. The GI50 in the assay with CAKI-1 is 3.55 µM (inactive); in the assay with TK-10, 4.26 µM (inactive); in the assay on KM12, 1.99 µM (inactive); in the assay with HT-29 it was 1.98 µM (inactive); in the assay with 786-0, 3.06 µM (inactive); in the assay on HOP-92, 3.39 µM (inactive). In addition, the results for the GI50 in the assay with NCI-H23 and in the assay with HCC 2998 were 2.43 µM (inactive) and 1.78 µM (inactive), respectively.

Regarding `CN(/N=C\c1ccc2ccccc2c1)C1=NCCN1`, the GI50 was 18.5 µM (inactive) with HOP-62; 18.1 µM (inactive) with K562; 12.1 µM (inactive) in the assay with A498; 17.7 µM (inactive) with SF-539; 20.4 µM (inactive) in the assay on Hs-578T; 25.6 µM (inactive) in the assay on DU-145. For the same molecule, the GI50 with HCT-15 is 25.2 µM; in the assay with OVCAR-3, 31.9 µM (inactive); in the assay on SK-MEL-5 it was 14.3 µM (inactive); with NCI-H460 it was 12.5 µM (inactive); in the assay with CCRF-CEM, 24.3 µM (inactive); in the assay with CAKI-1, 10.3 µM (inactive). Besides, the GI50 in the assay on TK-10 was 13.2 µM (inactive); in the assay with KM12, 15.7 µM (inactive); in the assay with HT-29, 13.3 µM (inactive); in the assay with 786-0, 15.6 µM (inactive); with HOP-92, 0.0817 µM (active); in the assay with NCI-H23, 30.7 µM (inactive). The GI50 with HCC 2998 was 16.2 µM (inactive).

On to `COC(=O)C(Cc1c[nH]c2ccccc12)NC(=O)c1ccc(-c2ccc(Cl)cc2Cl)o1` (stereo unspecified), for which the GI50 in the assay on HOP-62 is 45.8 µM (inactive); with K562, 26 µM (inactive); with A498, 15.5 µM (inactive); with M14, 64 µM (inactive); in the assay with SF-539, 21.7 µM (inactive); with Hs-578T, > 100 µM (inactive). Moreover, the GI50 in the assay on DU-145 was 71.6 µM (inactive); in the assay on HCT-15, 52.7 µM; in the assay with OVCAR-3, 36.4 µM (inactive); in the assay with NCI-H460, 21.6 µM (inactive); in the assay with CCRF-CEM, 20.6 µM (inactive); with CAKI-1, 42.7 µM (inactive). The GI50 is 63.5 µM (inactive) in the assay with TK-10; 60 µM (inactive) with KM12; 15.7 µM (inactive) in the assay on HT-29; 43.3 µM (inactive) with 786-0; 17.5 µM (inactive) in the assay on HOP-92; 73.3 µM (inactive) in the assay with NCI-H23. Moreover, in the assay with HCC 2998, the GI50 was 18.4 µM (inactive).

Consider `c1ccc(-c2nc(-c3ccccc3SSc3ccccc3-c3nc(-c4ccccc4)nn3-c3ccccc3)n(-c3ccccc3)n2)cc1`, for which the GI50 is > 10 µM (inactive) with HOP-62; > 100 µM (inactive) with K562; > 100 µM (inactive) in the assay on A498; > 100 µM (inactive) with M14; > 100 µM (inactive) in the assay with SF-539; > 100 µM (inactive) in the assay with Hs-578T. For the same molecule, the GI50 in the assay on DU-145 was > 100 µM (inactive); in the assay on HCT-15, more than 100 µM; in the assay with OVCAR-3, > 100 µM (inactive); in the assay with NCI-H460 it was > 100 µM (inactive); in the assay on CCRF-CEM, > 100 µM (inactive); in the assay with CAKI-1, > 100 µM (inactive). Besides, the GI50 in the assay on TK-10, with KM12, in the assay with 786-0, in the assay with HOP-92, in the assay with NCI-H23 and in the assay with HCC 2998 was > 100 µM (inactive) throughout.
